The subject of one experiment is SW620. As to the kind of experiment: Cell growth / proliferation (cell number). Type of experiment: cell-based, human. The following applies: for Number of cells / % inhibition: counted seven days after seeding; for Number of cells: control 1,800,000; for % Growth inhibition After 3 days: SW620, N6 or N7 20 μM, viable cell number vs untreated control, mean of at least 2 independent experiments. The procedure: (§1) Human breast (MDA-MB-231, MDA-MB-435 [37]), prostate (LNCaP, from American Type Culture Collection, ATCC, Rockville, MD), and cervical (HeLa) epithelial cancer cells were grown in DMEM-glutamax medium (Gibco Invitrogen, Cergy-Pontoise, France) containing GlutaMAX™, 4.5 g/l glucose and supplemented with 10% heat-inactivated (56°C for 30 min) fetal bovine serum (FBS; Hyclone, Thermo Fisher Scientific, Inc). Human SW480 cells are derived from a grade 3-4 colon carcinoma, while the highly metastatic counterpart SW620 is established from the lymph node of a person. Both SW480 and SW620 cells (obtained from Francis Raul, IRCAD) are highly tumorigenic in nude mice. They were cultured in D-MEM, 10% FCS. The murine melanoma TIII cell line was obtained from Armelle Prévost-Blondel. Murine T29 lymphoma cells, obtained from Philippe Kastner (CNRS, Strasbourg), have been established from Ik^L/L tumors from mice carrying a hypomorphic mutation (Ik^L/L) in the Ikaros gene encoding a transcription factor that regulates lymphocyte differentiation, and acts also as a tumor suppressor in T lymphocytes. The T29 cells were cultured in RPMI medium containing 25 mM Hepes pH 7.6, 1 mM sodium pyruvate, and 10% FCS. Human leukemia cell lines, Jurkat (acute T cell leukemia), HuT 78 (cutaneous T lymphocyte), RAJI (Burkitt lymphoma), and HL60 (promyelocytic leukemia) were cultured in RPMI-1640 medium (Gibco) containing GlutaMAX™, and supplemented with 10% heat-inactivated FBS as described before. The wild-type Chinese hamster ovary cell line (CHO K1) was purchased from American Type Culture Collection (ATCC; Rockville, MD). The CHO LRP1-null cell line (CHO-13-5-1) was kindly provided by D. Strickland [47]. They were cultured in Ham's F12K medium. All cells were cultured with 10% (v/v) heat inactivated (56°C, 30 min) fetal bovine serum (FBS) (Roche Molecular Biochemicals, Indianapolis, IN) and 50 international units/mL penicillin-streptomycin (Invitrogen). Cell death was monitored conveniently by uptake of the trypan blue dye due to plasma membrane permeability of dying and/or dead cells.

Another experiment has as its system SW480. As to the kind of experiment: Cell growth / proliferation (cell number). Type of experiment: cell-based, human. The following applies: for Number of cells / % inhibition: counted seven days after seeding; for Number of cells: control 1,500,000; for % Growth inhibition After 3 days: SW480, N6 or N7 20 μM, viable cell number vs untreated control, mean of at least 2 independent experiments. The procedure: as §1

In experiment [1] the test system is surface/cytoplasmic nucleolin. As to the kind of experiment: Down regulation of surface/cytoplasmic nucleolin in MDA-MB 231 cells, immunoblotting. The following applies: MDA-MB 231, 10 μM, 16 hours, immunoblotting with mAb D3; nuclear nucleolin not affected. Type of experiment: cell-based, human. The procedure: Nucleolin was analyzed by immunoblotting using either the monoclonal antibody (mAb) D3 against nucleolin (kindly provided by Dr. J. S. Deng), or rabbit polyclonal antibodies directed against a synthetic peptide corresponding to the first 26 ([…]) and the last 16 ([…]) amino acid residues of human nucleolin as described before. […] The reacting bands were visualized with an enhanced chemiluminescence (ECL) reagent and by exposure to autoradiography film (Amersham Biosciences). In some experiments, the presence of actin was monitored as a control with mAb anti-actin A-4700 (Sigma). […]
Figure 2 HB-19 and related Nucant pseudopeptides antagonize surface nucleolin and trigger its down regulation. […] At 48 h post-infection, the β-galactosidase activity was measured in cell extracts directly to monitor HIV entry (Methods). The abscissa gives % Activity of surface nucleolin calculated from the optical density measurements at 570 nm. […] Cytoplasmic (containing cytoplasmic as well as surface nucleolin) and nuclear extracts were analyzed by immunoblotting using mAb D3 as described (Methods)(panels Surface/cytoplasmic NCL, Nuclear NCL). […] HeLa cells in the absence (histogram C) or presence of 1, 2, 5, and 10 μM of N6L were cultured for 7 hours before preparation of cell extracts and immunoblotting as in section B. The intensity of nucleolin protein bands was quantified by using the NIH image software. […]

The test system of a further experiment is T29. As to the kind of experiment: Cell death (trypan blue uptake). It counts as cell-based, murine. The following applies: for % Cell death After 24 hours: T29, freshly passaged, N6 or N7 20 μM, mean of at least 2 independent experiments; for IC50: T29 cells, 0-20 μM, read-out: Cell death: IC50 24 hours post-passage. As to the method: as §1
Experiment [2] has as its system TIII. As to the kind of experiment: Cell death (trypan blue uptake). Type of experiment: cell-based, murine. The following applies: subconfluent, N6 or N7 20 μM, mean of at least 2 independent experiments. As to the method:
as §1

Experiment [3] concerns TIII. As to the kind of experiment: Cell growth / proliferation (viable cell number). It counts as cell-based, murine. The settings on record: mean of at least 2 independent experiments; for % Growth inhibition After 3 days: N6 or N7 20 μM, viable cell number vs untreated control; for % Inhibition of cell Proliferation: after 3 days of culture, vs untreated control. As to the method:
as §1

For “Ac-KAKPGKAKPGKAKPG-NH2 [Nucant N7, Presents hexavalently the pseudo-tripeptide Lysψ(CH2N)-Pro-Arg coupled to a similar template as in HB-19]”, the Number of cells is reported as 1,000,000 with SW620 (SW620, 10 μM added once 5 hours after seeding (20,000 cells/ml, 2 ml)); 700,000 with SW620 (SW620, 20 μM added once 5 hours after seeding (20,000 cells/ml, 2 ml)); 1,200,000 in the experiment on SW480 (SW480, 10 μM added once 5 hours after seeding (20,000 cells/ml, 2 ml)); 900,000 with SW480 (SW480, 20 μM added once 5 hours after seeding (20,000 cells/ml, 2 ml)). Also, the “% inhibition” value in the experiment with SW620 (SW620, 10 μM added once 5 hours after seeding) is given as 44%; with SW620 (SW620, 20 μM added once 5 hours after seeding) it was 61%; in the experiment on SW480 (SW480, 10 μM added once 5 hours after seeding), 20%; in the experiment with SW480 (SW480, 20 μM added once 5 hours after seeding), 40%. Besides, the results for the “% Growth inhibition After 3 days” value in the experiment with SW620, with SW480 and with TIII [3] were 45%, 25% and 55%, respectively. Also, the “level of surface/cytoplasmic nucleolin” value in experiment [1] is reported as “almost completely abolished”. The “% Cell death After 24 hours” value in the experiment on T29 was 45%; in the experiment on TIII [2], below 5%. Further, the IC50 with T29 turned out to be 20 µM.

Consider “Ac-Lys-Aib-Gly-Lys-Aib-Gly-Lys-Aib-Gly-Lys-Aib-Gly-Lys-Aib-Gly-Lys-Aib-Gly-CONH2 [Nucant N6, Presents hexavalently the pseudo-tripeptide Lysψ(CH2N)-Pro-Arg coupled to the polypeptide template containing Aib]”, for which the “% Growth inhibition After 3 days” value in the experiment on SW620 was 45%; in the experiment with SW480 it was 25%; in the experiment on TIII [3], 55%. Also, the “level of surface/cytoplasmic nucleolin” value in experiment [1] is “almost completely abolished”. The “% Cell death After 24 hours” value in the experiment with T29 is 45%; with TIII [2] it was below 5%. For the same substance, in the experiment on T29, the 50% inhibitory concentration (IC50) came to 20 µM. Further, the “% Inhibition of cell Proliferation” value was found to be 12% in the experiment with TIII [3] (2.5 μM), 20% with TIII [3] (5 μM), 32% in the experiment on TIII [3] (10 μM) and 45% with TIII [3] (20 μM).

(Values after article PMC3199867, “Targeting surface nucleolin with multivalent HB-19 and related Nucant pseudopeptides results in distinct inhibitory mechanisms depending on the malignant tumor cell type” (BMC Cancer, 2011).)
